Reference: ChEMBL document CHEMBL4396888, “Design and Synthesis of Potent, Selective Inhibitors of Protein Arginine Methyltransferase 4 against Acute Myeloid Leukemia” (J Med Chem, 2019)
Activity calls are given as the source filed them. The calls are words filed in the database; no cut-off is given here.

Experiments:
MOLM-13 [1] = assay: Antitumor activity against human MOLM13 cells xenografted in BALB/c nude mouse assessed as tumor growth inhibition at 100 mg/kg, po administered daily for 18 days measured 2 to 3 times a week by caliper method relative to control; assay type: functional; details: MOLM-13, po, 432 h, read-out: TGI
[2] = biological target: Protein arginine N-methyltransferase 7 (Homo sapiens, UniProt Q9NVM4); assay: Inhibition of recombinant full-length human PRMT7 expressed in Sf9 insect cells using Ac-KKDGKKRKRSRKESYK-biotin as substrate measured after 30 mins in presence of SAM by topcount scintillation counting method
[3] = Cmax in ICR mouse at 10 mg/kg, po administered via gavage by mass spectrometric analysis; assay type: ADME, organism-based; design: dose 10 mg/kg, route oral; details: in vivo
[4] = Drug level in tumor of nude BALB/c mouse xenografted with human MOLM13 cells at 100 mg/kg, po administered daily for 18 days measured 6 hrs post-last dose by LC-MS/MS analysis; assay type: ADME, organism-based, Neoplasm; details: read-out: Drug uptake
Mus musculus [5] = assay: In vivo inhibition of PRMT4 in nude BALB/c mouse xenografted with human MOLM13 cells assessed as reduction in asymmetric dimethyl arginine level at 100 mg/kg, po administered daily for 18 days measured 6 hrs post-last dose by Western blot analysis; assay type: functional, organism-based
[6] = Tmax in ICR mouse at 10 mg/kg, po administered via gavage by mass spectrometric analysis; assay type: ADME, organism-based; details: in vivo
[7] = Ratio of drug level in tumor of nude BALB/c mouse xenografted with human MOLM13 cells to IC50 for antiproliferative activity against human MOLM13 cells; assay type: cell-based
[8] = Clearance in ICR mouse at 3 mg/kg, iv by mass spectrometric analysis; assay type: ADME, organism-based; details: in vivo
[9] = Drug level in ICR mouse plasma at 10 mg/kg, po administered via gavage measured after 0.25 to 24 hrs by mass spectrometric analysis; assay type: ADME, organism-based; details: in vivo
[10] = AUC (0 to infinity) in ICR mouse at 10 mg/kg, po administered via gavage by mass spectrometric analysis; assay type: ADME, organism-based; design: dose 10 mg/kg, time infinity, route oral; details: in vivo
[11] = biological target: Histone-lysine N-methyltransferase 2A (Homo sapiens) (UniProt Q03164); assay: Inhibition of MLL1 (unknown origin) up to 50 uM preincubated for 10 mins followed by peptide substrate addition and measured after 4 hrs in presence of SAM by HTRF assay
[12] = AUC (0 to last) in ICR mouse at 3 mg/kg, iv by mass spectrometric analysis; assay type: ADME, organism-based; design: dose 3 mg/kg, route intravenous, time 0 - last; details: in vivo
[13] = biological target: Protein arginine N-methyltransferase 6 (Homo sapiens, UniProt Q96LA8); assay: Inhibition of PRMT6 (unknown origin) preincubated for 15 mins followed by substrate addition and measured after 60 mins by AlphaLisa assay
Mus musculus [14] = assay: In vivo inhibition of PRMT4 in nude BALB/c mouse xenografted with human MOLM13 cells assessed as reduction in BAF155 dimethylation at 100 mg/kg, po administered daily for 18 days measured 6 hrs post-last dose by Western blot analysis; assay type: functional, organism-based
[15] = biological target: Histone-lysine N-methyltransferase SMYD3 (Homo sapiens) (UniProt Q9H7B4); assay: Inhibition of SMYD3 (unknown origin) up to 50 uM preincubated for 15 mins followed by substrate addition and measured after 60 mins by AlphaLisa assay
MOLM-13 [16] = assay: Cell cycle arrest in human MOLM13 cells assessed as increase in accumulation at G0/G1-phase measured after 72 hrs by propidium iodide staining-based flow cytometry; assay type: functional
[17] = Selectivity ratio of IC50 for antiproliferative activity against human MOLM13 cells to IC50 for inhibition of PRMT4 in human MOLM13 cells assessed as reduction in BAF155 dimethylation
[18] = biological target: T1, Histone-arginine methyltransferase CARM1 (Homo sapiens, UniProt Q86X55); assay: Inhibition of PRMT4 in human MOLM13 cells assessed as reduction in PABP1 dimethylation measured after 96 hrs by Western blotting analysis; assay type: cell-based
T1 sequence (Q86X55 whole entry): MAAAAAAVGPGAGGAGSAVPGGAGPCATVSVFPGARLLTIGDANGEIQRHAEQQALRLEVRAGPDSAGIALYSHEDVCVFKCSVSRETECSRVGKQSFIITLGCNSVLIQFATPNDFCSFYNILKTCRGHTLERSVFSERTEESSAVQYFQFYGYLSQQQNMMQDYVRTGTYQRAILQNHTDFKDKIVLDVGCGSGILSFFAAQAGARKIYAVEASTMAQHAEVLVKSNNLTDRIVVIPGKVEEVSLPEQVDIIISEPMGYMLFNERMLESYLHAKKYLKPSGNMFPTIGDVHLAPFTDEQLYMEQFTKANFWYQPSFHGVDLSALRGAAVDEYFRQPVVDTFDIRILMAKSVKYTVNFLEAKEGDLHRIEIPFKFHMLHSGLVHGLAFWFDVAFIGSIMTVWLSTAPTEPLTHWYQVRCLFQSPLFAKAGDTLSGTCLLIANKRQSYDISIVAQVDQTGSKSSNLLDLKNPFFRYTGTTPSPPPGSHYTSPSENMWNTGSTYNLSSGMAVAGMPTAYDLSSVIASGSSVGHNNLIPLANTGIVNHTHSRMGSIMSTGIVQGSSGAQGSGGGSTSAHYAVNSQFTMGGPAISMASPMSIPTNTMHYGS

[19] = Oral bioavailability in ICR mouse at 10 mg/kg administered via gavage by mass spectrometric analysis; assay type: ADME, organism-based; details: in vivo
THP-1 = assay: Antiproliferative activity against human THP1 cells measured after 6 days by CCK8/SRB assay; assay type: functional, cell-based

Protein arginine N-methyltransferase 6, sequence (Q96LA8 whole entry): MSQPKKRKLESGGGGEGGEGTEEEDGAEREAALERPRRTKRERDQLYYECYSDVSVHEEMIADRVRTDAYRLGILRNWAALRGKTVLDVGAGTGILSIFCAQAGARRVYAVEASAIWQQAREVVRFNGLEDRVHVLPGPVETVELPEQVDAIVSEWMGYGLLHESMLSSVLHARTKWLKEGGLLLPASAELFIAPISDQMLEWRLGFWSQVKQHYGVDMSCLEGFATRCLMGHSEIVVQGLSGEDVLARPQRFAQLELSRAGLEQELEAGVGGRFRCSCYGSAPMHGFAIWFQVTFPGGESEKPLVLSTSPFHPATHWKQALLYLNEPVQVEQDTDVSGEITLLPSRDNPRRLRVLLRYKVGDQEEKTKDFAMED
Histone-lysine N-methyltransferase 2A (Homo sapiens), sequence (Q03164 1-2718 limits assumed): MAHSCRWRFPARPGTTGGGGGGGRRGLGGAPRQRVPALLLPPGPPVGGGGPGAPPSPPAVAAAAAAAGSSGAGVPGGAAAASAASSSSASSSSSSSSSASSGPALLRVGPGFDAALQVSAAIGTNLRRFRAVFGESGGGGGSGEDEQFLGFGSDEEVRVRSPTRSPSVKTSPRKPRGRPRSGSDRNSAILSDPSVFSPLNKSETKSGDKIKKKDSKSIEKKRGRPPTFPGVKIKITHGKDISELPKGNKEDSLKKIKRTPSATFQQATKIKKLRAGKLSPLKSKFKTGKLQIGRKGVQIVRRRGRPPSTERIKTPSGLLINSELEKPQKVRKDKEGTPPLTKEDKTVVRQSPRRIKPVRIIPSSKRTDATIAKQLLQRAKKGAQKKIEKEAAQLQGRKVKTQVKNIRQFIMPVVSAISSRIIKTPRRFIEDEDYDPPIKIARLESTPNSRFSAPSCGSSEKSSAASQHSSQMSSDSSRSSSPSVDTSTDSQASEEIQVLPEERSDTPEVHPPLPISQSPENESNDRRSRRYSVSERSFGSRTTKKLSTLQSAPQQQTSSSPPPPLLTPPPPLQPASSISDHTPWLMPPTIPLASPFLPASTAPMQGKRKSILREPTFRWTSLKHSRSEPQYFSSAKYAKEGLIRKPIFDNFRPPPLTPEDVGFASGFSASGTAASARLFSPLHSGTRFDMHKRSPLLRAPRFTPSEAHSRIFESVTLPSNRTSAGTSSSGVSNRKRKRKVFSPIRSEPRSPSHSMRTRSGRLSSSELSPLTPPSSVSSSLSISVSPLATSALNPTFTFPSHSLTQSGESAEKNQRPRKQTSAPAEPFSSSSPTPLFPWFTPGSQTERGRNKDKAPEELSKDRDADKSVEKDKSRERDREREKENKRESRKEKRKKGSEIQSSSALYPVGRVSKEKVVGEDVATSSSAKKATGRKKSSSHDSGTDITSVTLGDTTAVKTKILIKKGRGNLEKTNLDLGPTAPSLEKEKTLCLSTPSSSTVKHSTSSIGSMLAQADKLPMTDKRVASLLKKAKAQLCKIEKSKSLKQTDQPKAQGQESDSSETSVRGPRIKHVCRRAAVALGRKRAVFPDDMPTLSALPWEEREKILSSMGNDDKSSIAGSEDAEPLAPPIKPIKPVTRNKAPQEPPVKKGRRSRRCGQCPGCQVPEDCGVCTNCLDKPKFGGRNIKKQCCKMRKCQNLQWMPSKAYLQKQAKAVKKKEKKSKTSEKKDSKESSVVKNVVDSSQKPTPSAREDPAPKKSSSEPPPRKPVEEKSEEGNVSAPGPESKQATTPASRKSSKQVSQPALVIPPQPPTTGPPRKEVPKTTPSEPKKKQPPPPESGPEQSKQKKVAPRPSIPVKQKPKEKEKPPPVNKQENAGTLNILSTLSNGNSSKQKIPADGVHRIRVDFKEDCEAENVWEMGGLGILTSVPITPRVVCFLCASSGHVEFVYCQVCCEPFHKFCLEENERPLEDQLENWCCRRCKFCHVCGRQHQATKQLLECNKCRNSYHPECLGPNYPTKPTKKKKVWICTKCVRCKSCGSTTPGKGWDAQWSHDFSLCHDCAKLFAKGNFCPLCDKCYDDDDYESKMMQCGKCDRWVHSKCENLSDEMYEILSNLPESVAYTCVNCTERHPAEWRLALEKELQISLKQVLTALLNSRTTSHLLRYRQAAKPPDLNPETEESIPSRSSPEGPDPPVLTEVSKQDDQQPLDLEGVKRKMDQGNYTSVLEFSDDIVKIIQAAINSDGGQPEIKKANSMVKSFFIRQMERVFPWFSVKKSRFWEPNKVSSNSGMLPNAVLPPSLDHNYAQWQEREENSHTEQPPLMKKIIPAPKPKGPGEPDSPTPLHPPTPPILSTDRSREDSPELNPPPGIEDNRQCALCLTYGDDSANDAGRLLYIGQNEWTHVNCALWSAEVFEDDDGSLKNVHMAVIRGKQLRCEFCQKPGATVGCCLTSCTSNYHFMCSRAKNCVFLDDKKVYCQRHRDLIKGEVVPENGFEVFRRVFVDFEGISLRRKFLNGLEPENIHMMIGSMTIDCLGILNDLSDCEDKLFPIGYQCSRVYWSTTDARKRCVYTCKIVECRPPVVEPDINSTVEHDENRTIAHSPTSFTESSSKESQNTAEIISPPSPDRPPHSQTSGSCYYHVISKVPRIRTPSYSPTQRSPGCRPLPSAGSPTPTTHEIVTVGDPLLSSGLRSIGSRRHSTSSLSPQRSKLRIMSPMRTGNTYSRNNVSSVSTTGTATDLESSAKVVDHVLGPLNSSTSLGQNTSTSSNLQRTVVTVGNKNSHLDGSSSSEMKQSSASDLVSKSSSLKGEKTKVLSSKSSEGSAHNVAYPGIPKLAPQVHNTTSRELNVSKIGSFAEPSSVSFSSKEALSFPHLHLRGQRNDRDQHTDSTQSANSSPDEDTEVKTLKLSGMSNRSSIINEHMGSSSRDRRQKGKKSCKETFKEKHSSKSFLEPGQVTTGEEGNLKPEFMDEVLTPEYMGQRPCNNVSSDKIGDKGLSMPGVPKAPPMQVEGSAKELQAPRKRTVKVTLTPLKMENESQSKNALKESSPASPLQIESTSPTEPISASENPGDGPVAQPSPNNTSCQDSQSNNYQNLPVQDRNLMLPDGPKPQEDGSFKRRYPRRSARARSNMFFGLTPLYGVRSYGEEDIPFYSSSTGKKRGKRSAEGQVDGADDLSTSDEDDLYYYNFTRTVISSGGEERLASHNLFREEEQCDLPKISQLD
Histone-lysine N-methyltransferase 2A (Homo sapiens), sequence (Q03164 2719-3969 limits assumed): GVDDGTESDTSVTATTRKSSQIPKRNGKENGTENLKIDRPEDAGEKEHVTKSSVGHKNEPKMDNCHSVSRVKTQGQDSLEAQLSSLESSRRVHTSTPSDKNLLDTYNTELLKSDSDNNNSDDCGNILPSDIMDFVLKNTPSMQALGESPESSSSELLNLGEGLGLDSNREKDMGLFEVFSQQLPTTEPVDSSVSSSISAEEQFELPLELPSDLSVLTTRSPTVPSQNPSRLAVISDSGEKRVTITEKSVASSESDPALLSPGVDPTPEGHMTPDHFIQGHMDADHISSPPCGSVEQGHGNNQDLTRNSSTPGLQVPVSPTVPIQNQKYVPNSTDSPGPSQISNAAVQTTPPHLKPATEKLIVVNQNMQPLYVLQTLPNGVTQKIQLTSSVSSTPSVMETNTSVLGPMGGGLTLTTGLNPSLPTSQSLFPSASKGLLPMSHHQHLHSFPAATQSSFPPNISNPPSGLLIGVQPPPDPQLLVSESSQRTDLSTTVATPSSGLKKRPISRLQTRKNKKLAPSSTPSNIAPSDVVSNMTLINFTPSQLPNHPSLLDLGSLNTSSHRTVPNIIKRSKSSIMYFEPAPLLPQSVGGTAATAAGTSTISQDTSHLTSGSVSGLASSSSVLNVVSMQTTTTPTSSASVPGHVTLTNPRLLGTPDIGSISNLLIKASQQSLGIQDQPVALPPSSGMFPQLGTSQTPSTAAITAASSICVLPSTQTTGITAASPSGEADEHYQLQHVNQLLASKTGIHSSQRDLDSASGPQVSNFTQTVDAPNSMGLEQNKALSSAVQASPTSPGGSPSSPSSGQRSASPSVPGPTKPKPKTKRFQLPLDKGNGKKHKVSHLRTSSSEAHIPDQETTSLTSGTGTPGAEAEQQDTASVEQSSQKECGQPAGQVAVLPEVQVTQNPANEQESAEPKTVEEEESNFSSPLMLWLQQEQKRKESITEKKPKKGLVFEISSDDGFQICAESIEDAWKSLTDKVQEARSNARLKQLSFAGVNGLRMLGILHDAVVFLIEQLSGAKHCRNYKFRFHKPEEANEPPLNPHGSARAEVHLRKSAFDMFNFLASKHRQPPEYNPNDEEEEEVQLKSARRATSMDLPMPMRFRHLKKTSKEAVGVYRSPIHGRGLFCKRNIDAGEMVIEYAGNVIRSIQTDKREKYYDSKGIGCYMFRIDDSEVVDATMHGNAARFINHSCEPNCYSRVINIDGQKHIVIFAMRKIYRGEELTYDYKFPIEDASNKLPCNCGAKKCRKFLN
Protein arginine N-methyltransferase 7, sequence (Q9NVM4 whole entry): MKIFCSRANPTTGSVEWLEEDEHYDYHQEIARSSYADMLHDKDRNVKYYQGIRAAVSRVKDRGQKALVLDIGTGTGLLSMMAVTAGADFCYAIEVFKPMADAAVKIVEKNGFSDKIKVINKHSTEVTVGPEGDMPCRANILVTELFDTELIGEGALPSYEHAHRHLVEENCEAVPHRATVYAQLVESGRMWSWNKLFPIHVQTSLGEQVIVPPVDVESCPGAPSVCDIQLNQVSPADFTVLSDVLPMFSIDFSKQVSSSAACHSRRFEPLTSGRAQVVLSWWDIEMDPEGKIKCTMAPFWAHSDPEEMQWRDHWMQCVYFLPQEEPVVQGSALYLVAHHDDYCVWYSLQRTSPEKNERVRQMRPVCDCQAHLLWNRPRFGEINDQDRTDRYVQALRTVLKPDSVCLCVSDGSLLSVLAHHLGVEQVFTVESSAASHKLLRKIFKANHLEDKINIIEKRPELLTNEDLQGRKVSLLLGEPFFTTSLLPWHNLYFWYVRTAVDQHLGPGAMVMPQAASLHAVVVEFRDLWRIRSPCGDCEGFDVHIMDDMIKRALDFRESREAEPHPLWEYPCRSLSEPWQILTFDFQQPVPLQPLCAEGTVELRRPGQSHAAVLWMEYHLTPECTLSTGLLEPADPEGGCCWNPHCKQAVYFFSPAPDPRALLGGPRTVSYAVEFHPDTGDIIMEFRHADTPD

In the case of CNC[C@@H](O)CN1CCc2c(cccc2OCc2ccc(-c3nccs3)cc2)C1, the inhibition in vivo at 100 mg/kg (MOLM-13 [1]) is reported as 53.5%, the IC50 [2] is reported as > 30 µM and the Cmax [3] is reported as 75.4 ng/mL. The concentration at 6 h [4] was 80700 ng/g, the inhibition (Mus musculus [5]) was “Active” and the Tmax [6] was 8 h. For the same compound, the Ratio [7] was 20 to 30, the clearance [8] was 44.9 mL/min/kg and the concentration [9] was 120 nM. The AUC(0-inf) [10] was 3030 ng·h/mL, the inhibition [11] was “inactive” and the AUC(0-t) [12] was 869 ng·h/mL. The IC50 [13] was 7.9 µM, the inhibition (Mus musculus [14]) was “Active” and the inhibition [15] was “inactive”. The Activity (MOLM-13 [16]) was “Dose-dependent effect”, the “Ratio IC50” value [17] was 10 and the IC50 [18] was 0.545 µM. The bioavailability [19] was 48.8% and the Activity (THP-1) was “Dose-dependent effect”.
